Entries after “also recorded” stand apart in the source; their conditions may differ.
Columns and labels:
M. marinum luxCDABE = format: cell-based, Mycobacterium marinum
M. marinum GFP = format: cell-based, Mycobacterium marinum; details: for M. marinum GFP normalised growth, control=1.00, mean: 10 µM, antibiotic assay; for antibiotic activity in M. marinum growth assay: broth
[1] = test system: M. marinum in A. castellanii; format: cell-based, Mycobacterium marinum
[2] = test system: M. marinum in BV2 microglial cells; format: cell-based, Mycobacterium marinum
[3] = test system: M. bovis BCG pMV261 (empty plasmid); format: cell-based, Mycobacterium bovis BCG
M. bovis BCG pMV261-murC = format: cell-based, Mycobacterium bovis BCG
D. discoideum GFP-ABD = details: for D. discoideum GFP-ABD normalised growth, control=1.00, mean: 10 µM
Mtb H37Rv in THP-1 = test system: Mtb H37Rv in THP-1; parameters: method as in Sorrentino et al, 2015; details: ref Sorrentino et al, 2015, cited from earlier work; for Intracelullar MIC90 in THP-1: THP1 / Mtb H37Rv infection assay; for Extracellular MIC90/ Inracellular MIC90: ratio
Mtb H37Rv = test system: Mtb H37Rv; parameters: method as in Sorrentino et al, 2015; details: ref Sorrentino et al, 2015; cited from earlier work
M. bovis BCG pMV261-fbpA = format: cell-based, Mycobacterium bovis BCG
[4] = not told; cited from earlier work

Compound | M. marinum luxCDABE normalised growth, control=1.00, mean (M. marinum luxCDABE; 10 µM) | M. marinum GFP normalised growth, control=1.00, mean (M. marinum GFP) | antibiotic activity in M. marinum growth assay (M. marinum GFP) | A. castellanii / M. marinum normalised growth, control=1.00, mean ([1]; 10 µM) | IC50 [2] [µM] | BV2 / M. marinum normalised growth, control=1.00, mean ([2]; 10 µM) | pXC50(1) [3] | pXC50(2) [3] | pIC50 Shift (1) (M. bovis BCG pMV261-murC) | pIC50 Shift (2) (M. bovis BCG pMV261-murC) | pXC50(1) (M. bovis BCG pMV261-murC) | pXC50(2) (M. bovis BCG pMV261-murC) | Intracelullar MIC90 in THP-1 (Mtb H37Rv in THP-1) [µM] | Extracellular MIC90/ Inracellular MIC90 (Mtb H37Rv in THP-1) | Extracellular MIC90 (Mtb H37Rv) [µM] | Antibiotic assays: M. marinum luxCDABE (M. marinum luxCDABE) | Intracellular infection assays: A. castellanii / M. marinum [1] | Intracellular infection assays: BV2 / M. marinum [2] | Growth inhibition / Cytotoxicity assays: D. discoideum GFP-ABD (D. discoideum GFP-ABD) | Growth inhibition / Cytotoxicity assays: BV2 cells (BV2 cells) | further results
CC(C)OC(=O)COc1ccc(-c2cnc(N(C)CCc3ccncc3)nc2)cc1 [GSK831784A] | 0.00 | 0.10 | strong antibiotic activity | 0.20 | 15 | 0.97 | 4.96 | 4.97 | 0.32 | 0.42 | 4.64 | 4.55 | – | – | – | – | – | – | – | – | M. marinum luxCDABE normalised growth, control = 1.00, mean (M. marinum luxCDABE; 10 µM): 0,00; Hits A. castellanii/M. marinum assay True/False ([1]; 10 µM): TRUE; hit in BV2/M. marinum assay True/False ([2]; 10 µM): FALSE; D. discoideum GFP-ABD normalised growth, control=1.00, mean (D. discoideum GFP-ABD): 0.98
Cc1ccc2nc(C)c(-c3ccn(Cc4ccccc4)n3)n2c1 [GSK847920A] | 0.11 | 0.36 | strong antibiotic activity | 1.17 | 3.29 | 0.95 | 5.94 | 5.99 | 0.49 | 0.54 | 5.45 | 5.45 | 1.85 | 2.7 | 5 | – | – | – | – | – | D. discoideum GFP-ABD normalised growth, control=1.00, mean (D. discoideum GFP-ABD): 0.34
CC(C)(C)c1ccc(-c2nnc(SCC(=O)OC3CCCCC3)o2)cc1 [GW859039X] | – | – | strong antibiotic activity | – | – | – | 5.03 | 5.04 | – | – | – | – | 5.55 | 0.31 | 1.7 | 0.075 | 0.90 | 1.04 | 0.68 | False | pIC50 Shift (1) (M. bovis BCG pMV261-fbpA): 0.43; pIC50 Shift (2) (M. bovis BCG pMV261-fbpA): 0.42; pXC50(1) (M. bovis BCG pMV261-fbpA): 4.6; pXC50(2) (M. bovis BCG pMV261-fbpA): 4.62
O=C(c1[nH]nc2c1CCCC2)N1CCN(Cc2ccc3c(c2)OCO3)CC1 [SB-712970] | – | – | – | – | – | – | – | – | – | – | – | – | 5.55 | 0.81 | 4.5 | 0.00 | 1.13 | 1.28 | 0.79 | False | –
CCCCc1ccc(C(=O)Nc2nccc3ccccc23)nc1 [SB-746177] | – | – | – | – | – | – | – | – | – | – | – | – | 1.85 | 4.97 | 9.2 | 0.00 | 1.01 | 1.27 | 0.92 | False | –
NCC[C@H](O)C(=O)N[C@@H]1C[C@H](N)[C@@H](O[C@H]2O[C@H](CN)[C@@H](O)[C@H](O)[C@H]2O)[C@H](O)[C@H]1O[C@H]1O[C@H](CO)[C@@H](O)[C@H](N)[C@H]1O [amikacin, reference compound] | – | – | – | – | – | – | – | – | – | – | – | – | – | – | – | – | – | – | – | – | effect of amikacin on intracellular mycobacteria growth [2]: has an effect on mycobacteria growth inside BV2 cells; also recorded: exerts a significant effect on intracellular bacteria; cellular permeability [4]: low cellular permeability
